Measurements taken from patent US9067928B2 (Genentech, Inc., priority 2008, dated 2015).

Key:
[1] = molecular target: T1, Bcl-2 (Homo sapiens, UniProt P10415); experiment: TR-FRET binding assay, competition with F-Bak for Bcl-2 binding site; details: GST-Bcl-2, F-Bak probe
T1 construct: made in house
Procedure: (§1) Test compounds were serially diluted in DMSO starting at 50 μM (2× starting concentration; 10% DMSO) and 10 μL transferred into a 384-well plate.
(§2) The samples are then mixed on a shaker for 1 minute then incubated for an additional 2 hours at room temperature. For each assay plate, a probe/antibody and protein/antibody/probe mixture were included as a negative and a positive control, respectively. Fluorescence was measured on the Envision (Perkin Elmer) using a 340/35 nm excitation filter and 520/525 (F-Bak) and 495/510 nm (Tb-labeled anti-his antibody) emission filters. Dissociation constants (Ki) were determined using Wang's equation (see, Wang, Z. X. An exact mathematical expression for describing competitive binding of two different ligands to a protein molecule. FEBS Lett. 1995 360:111-114). The TR-FRET assay can be performed in the presence of varying concentrations of human serum (HS) or fetal bovine serum (FBS).
For comparison, the measurement of the competition of compounds of the invention for other Bcl-2 family protein binding sites (e.g., Bcl-2, Mcl-1) using the TR-FRET binding assay was accomplish by substituting GST-Bcl-xL in the TR-FRET assay with other GST-labeled protein, e.g. GST-Bcl-2, GST-Mcl-1 prepared in-house.
For comparison, data (Ki in micromolar) from the measurement of the competition by certain compounds of the invention (i.e., compounds 1, 28, 38, 63, 71, 75, 80, 81, 92 and 94 in Table 1) with F-Bak for the Bcl-2 binding site using the TR-FRET binding assay are, 1.2, 0.15, 0.01, 0.018, 0.50, 0.272, 0.167, 0.66, 0.23 and 0.000003 respectively.

[2] = molecular target: T2, Bcl-xL (Homo sapiens, UniProt Q07817); experiment: TR-FRET binding assay, competition with F-Bak for Bcl-xL binding site; details: GST-Bcl-xL, F-Bak probe
T2 construct: made in house
T2 sequence (Q07817 whole entry, species assumed): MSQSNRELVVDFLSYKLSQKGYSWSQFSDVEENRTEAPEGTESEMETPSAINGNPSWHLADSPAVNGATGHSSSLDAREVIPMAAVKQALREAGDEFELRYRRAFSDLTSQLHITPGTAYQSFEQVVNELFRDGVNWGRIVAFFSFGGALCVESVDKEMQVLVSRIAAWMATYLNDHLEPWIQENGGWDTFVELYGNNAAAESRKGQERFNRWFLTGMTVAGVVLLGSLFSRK
Procedure: The measurement of competition of compounds of the invention with F-Bak for a Bcl-2 family protein (Bcl-xL) binding site using a Time Resolved Fluorescence Resonance Energy Transfer (TR-FRET) Binding Assay:
as §1, §2

[3] = molecular target: T2, Bcl-xL; experiment: Alpha Screen Bcl-xL binding assay, competition with Bim26-mer; details: values listed in the order of Table 1; read-out: Alphascreen results (IC50)
Procedure: The measurement of competition of compounds of the invention with Bim26-mer for a Bcl-2 family protein binding site using an Alpha Screen Bcl-xL Binding Assay:
The BH3 proteins ALPHASCREEN™ assay was used to identify active small molecules Bcl-2 family protein screen. e.g., Bcl-xL, hmMcl-1 screen. To determine an accurate estimation of the IC50, the compounds were routinely tested at starting concentrations, 100 μM and/or 1 μM and serially titrated 3 fold over 11 dilutions.
The beads come in close proximity when the protein and the peptides interact. Donor beads contain a photosensitiser that converts oxygen to an excited form of O2 at an excitation of 680 nm. Energy is transformed from the singlet oxygen and reacts with chemiluminescers on the acceptor bead, resulting in light emission at 520-620 nm. […] With this information, the IC50 of each compound was calculated
GST-Bcl-xL, GST-hmMcl-1 and biotinylated GST proteins were prepared in-house and were stored as stock solutions at −80° C. The biotinylated-Bak, and biotinylated-Bim peptides were purchased from Auspep and were stored as 500 μM stock solutions in 100% DMSO at −80° C. The ALPHASCREEN™ GST (Glutathione-S-Transferase) Detection Kit was obtained from Perkin Elmer Lifesciences (Cat #6760603R). The Proxiplates, white 384 well flat-Bottom plates were purchased from Interpath Services, Melbourne (Cat #784075). The seals to cover the plates were purchased from Proscience. Melbourne (Cat#784075). DMSO was purchased from AnalaR. The 384 deep well plates and the Polypropylene 50 μL, V bottom polypropylene compound plates were purchased from Matrical.
Compounds of the invention were prepared as 10 mM stocks with 100% DMSO on the day prior to performing the assay. […] To achieve a final compound concentration of 1 μM, in a separate matrical plate, 28 μL of 100% DMSO and 2 μL of 10 mM compound was added to a well, mixed well. 2 μL of this solution was taken and added to 38 μL of 100% DMSO. 20 μL of this solution was added to the test matrical plate. Several control compounds were included in the test plates. For the control wells 15 μL 100% DMSO only was added to the appropriate wells of each plate. The compound plates were then serially diluted 2 fold using the MiniTrak. Once titrations were complete, the compound plate was immediately covered with a foil seal to prevent evaporation.
The assay and bead buffers were prepared fresh. Each titrated compound plate was assayed in duplicate. The following volumes were sufficient to run 12 Proxiplates (4 assay plates run in duplicate in each of Bclxl, hmMcl and counter assays)
Protein and Peptide Preparation; and Assay Performance • 1. The assay and bead buffers were used to prepare the acceptor and donor solutions. ALPHASCREEN™ beads are light sensitive and therefore prepared in a darkened room. 2.5 μL of beads were added per 1 mL of buffer. • 2. The volume of protein or peptide to add was calculated using the following formula:
[formula] • C1=Final Concentration of protein/peptide • C2=Stock Concentration of protein/peptide • V1=Total Volume of Acceptor/Donor Solution • V2=Volume of stock protein/Peptide to add to Acceptor/Donor solution • 3. The assay components were prepared as separate Acceptor and Donor Solutions. The Acceptor Solution contained Acceptor heads and target protein, while the Donor Solution contained Donor beads and biotinylated peptide.
• 4. After the solutions were prepared, they were left to incubate for 30 minutes at room temperature to allow the beads to bind to the protein and the peptide. • 5. 50 μL of Bcl-xL solution, 50 μL of hmMcl-1 solution and 50 µL of biotinylated-GST were added into separate deep wells on an assay plate. A control […]. Assay/Bead buffer was added separate well plates (no protein). • 6.

[4] = system: Mcl-1-/- mouse embryonic fibroblasts (MEF); experiment: Cell viability assay for Mcl-1-/- mouse embryonic fibroblasts (CellTiter-Glo); format: cell-based; details: Fibroblast, 1% Fetal Bovine Serum, read-out: MEF Mcl-1-/- KO cell viability results (EC50)
Description: a. Cell Viability Assay for Mcl-1^−/− Mouse Embryonic Fibroblasts (MEF):
Neutralization of both […] and Mcl-1 anti-apoptotic proteins in normal cells is required before a cell undergoes apoptosis via the downstream Bax/Bak pathway See, Chen. L. et al. Mol. Cell (2005) 17, 393-403; Willis, S. N. et al. Genes Dev. (2005) 19, 1294-1305. A compound that only targets Bcl-xL should not affect normal cells, but could kill certain cancer cells if they rely more on Bcl-xL and less on other anti-apoptotic proteins, e.g. Mcl-1, for survival. To mirror this, compounds of the invention were tested for its effect on survival of wild type (wt) mouse embryo fibroblasts (MEFs), Bax/Bak double knockout (BB DKO) MEFs, MEFs that expressed Noxa, and MEFs that expressed Bad. Noxa specifically neutralizes Mcl-1. […] MEFs that express Noxa mirror cancer cell types that are reliant on Bcl-xL for survival and should be much more sensitive to killing by a Bcl-xL targeting compound than MEFs where both Bcl-xL and Mcl-1 are protective.
In this assay, Mcl-1^(−/−) cells were used to confirm that cell apoptosis in the presence of BH3 mimetic small molecules was due to predominantly Bcl-xL inactivation. This inactivation leaves Bax/Bak unconstrained and results in apoptosis. The […]-GLO Luminescent Cell Viability Assay is a homogeneous method of determining the number of viable cells in culture based on quantitation of the ATP present. The amount of ATP correlates with the presence of metabolically active cells such that following cell lysis the amount of ATP present is proportional to the amount of luminescence measured.
Mcl-1^(−/−) mouse embryonic fibroblasts (MEFs) are an adherent cell line prepared in house. MEFs were grown in Iwaki 75 cm^2 tissue culture flasks (cat #3123-075) with FMA media which consists of: • 89% DME Kelso • 10% heat-inactivated foetal calf serum (FCS) (Hyclone cat #SH30396.03) • 1% 10 mM asparagine (Fluka cat #11149) • 275 μl of a 1:2000 dilution of 2-mercaptoethanol is added to the final 500 ml volume of FMA (Sigma cat #M7522; diluted in MT-PBS)
FMA was stored at 4° C. and used at 37° C. MEFs were cultured in FMA media and harvested in MT-PBS and trypsin. For MEF cell viability assays, cells were seeded separately in plates with 10% FCS-FMA and 1% FCS-FMA. […]
Automated Systems that can be used in this assay include: 1) Multidrop—The MULTIDROP 384 (ThermoLabsystems) dispenser was used to dispense cells aseptically into the assay plates: 2) MiniTrak—The […] system from Perkin Elmer was used for titration of the compound plates; 3) Zymark—The ZYMARK SCICLONE ALH3000 System with 100 nL pintool head was used for compound addition to the cells; 4) EnVision—The ENVISION plate reader was used to measure the viability via the detection of the luminescence. […]

T1 sequence (P10415 whole entry, species assumed): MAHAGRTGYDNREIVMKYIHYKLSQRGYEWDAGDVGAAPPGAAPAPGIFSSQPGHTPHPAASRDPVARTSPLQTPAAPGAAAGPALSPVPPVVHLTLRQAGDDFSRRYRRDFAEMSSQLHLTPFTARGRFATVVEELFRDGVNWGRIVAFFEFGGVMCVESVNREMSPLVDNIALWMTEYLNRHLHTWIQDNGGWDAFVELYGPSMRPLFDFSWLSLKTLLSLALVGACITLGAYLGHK

Row | SMILES | Ki [1] | Ki [2] | IC50 [3] | EC50 [4]
1 | COc1ccc(-c2sc(-c3ccc4c(c3)N(C(=O)Nc3nc5ccccc5s3)CCC4)nc2C(=O)N(C)C)cc1 [Example 81, 2-(1-(benzo[d]thiazol-2-ylcarbamoyl)-1,2,3,4-tetrahydroquinolin-7-yl)-5-(4-methoxyphenyl)-N,N-dimethylthiazole-4-carboxamide] | 660 nM | 660 nM | 380 nM | 
2 | O=C(O)c1nc(-c2ccc3c(c2)N(C(=O)Nc2nc4ccccc4s2)CCC3)sc1CCCOc1ccc(-n2ncc3cncnc32)cc1 [Example 94, 5-(3-(4-(1H-pyrazolo[3,4-d]pyrimidin-1-yl)phenoxy)propyl)-2-(1-(benzo[d]thiazol-2-ylcarbamoyl)-1,2,3,4-tetrahydroquinolin-7-yl)thiazole-4-carboxylic acid] | 0.003 nM | 0.003 nM | 0.5 nM | 
3 | CC(C)Oc1ccc(-c2sc(-c3ccc4c(c3)N(C(=O)Nc3nc5ccccc5s3)CCC4)nc2C(=O)O)cc1F [Example 80, 2-(1-(benzo[d]thiazol-2-ylcarbamoyl)-1,2,3,4-tetrahydroquinolin-7-yl)-5-(3-fluoro-4-isopropoxyphenyl)thiazole-4-carboxylic acid] | 167 nM | 0.7 nM | 6 nM | 
4 | O=C(O)c1ccc(-c2sc(-c3ccc4c(c3)N(C(=O)Nc3nc5ccccc5s3)CCO4)nc2C(=O)O)cc1 [Example 68, 2-(4-(benzo[d]thiazol-2-ylcarbamoyl)-3,4-dihydro-2H-benzo[b][1,4]oxazin-6-yl)-5-(4-carboxyphenyl)thiazole-4-carboxylic acid] |  | 470 nM | 540 nM | 
5 | O=C(O)c1nc(-c2ccc3c(c2)N(C(=O)Nc2nc4ccccc4s2)CCC3)ccc1OCCCc1ccccc1 [Example 90, 6-(1-(benzo[d]thiazol-2-ylcarbamoyl)-1,2,3,4-tetrahydroquinolin-7-yl)-3-(3-phenylpropoxy)picolinic acid] |  |  | 10 nM | 590 nM
6 | O=C(O)c1csc(-c2ccc3c(c2)N(C(=O)Nc2nc4ccccc4s2)CCC3)n1 [Example 1] | 1200 nM | 197 nM | 360 nM | 
7 | O=C(O)c1nc(-c2ccc3c(c2)N(C(=O)Nc2nc4ccccc4s2)CCC3)sc1Oc1ccccc1 [Example 63, 2-(1-(benzo[d]thiazol-2-ylcarbamoyl)-1,2,3,4-tetrahydroquinolin-7-yl)-5-phenoxythiazole-4-carboxylic acid] | 18 nM | 12 nM | 50 nM | 
8 | CCOc1ccc(-c2sc(-c3ccc4c(c3)N(C(=O)Nc3nc5ccccc5s3)CCC4)nc2C(=O)O)cc1 [Example 75, 2-(1-(benzo[d]thiazol-2-ylcarbamoyl)-1,2,3,4-tetrahydroquinolin-7-yl)-5-(4-ethoxyphenyl)thiazole-4-carboxylic acid] | 272 nM | 1 nM | 7 nM | 
9 | COc1ccc(-c2sc(-c3ccc4c(c3)N(C(=O)Nc3nc5ccccc5s3)CCC4)nc2C(=O)O)cc1 [Example 71, 2-(1-(benzo[d]thiazol-2-ylcarbamoyl)-1,2,3,4-tetrahydroquinolin-7-yl)-5-(4-methoxyphenyl)thiazole-4-carboxylic acid] | 500 nM | 7 nM | 40 nM | 
